System: 958767-090-R-J1-PDC spheroid growth
Experiment: Anticancer human tumor 958767-090-R-J1-PDC patient-derived head and neck squamous carcinoma cell line growth inhibition [IpAb]
Details: spheroids with HUVEC and MSC; for IC50: curve of first compound; for viability, T/C: stronger effect = lower value
Excerpt: Combinatorial screen of targeted agents with ipatasertib and abemaciclib in multi-cell type tumor spheroids
A high-throughput screen of multi-cell type tumor spheroids was designed to identify active combinations of targeted small molecules and ipatasertib or abemaciclib. Complex spheroids include a stromal component modeled by human endothelial cells (HUVEC) and fibroblasts modeled by human mesenchymal stem cells (MSCs). The concentration ranges selected for each drug and investigational agent were based upon clinically achievable concentrations if the clinical Cmax of the agent was known.
Compounds. The drugs and investigational agents: ipatasertib (NSC767898), abemaciclib(NSC768073), selumetinib (NSC741078), trametinib (758246), adavosertib (NSC754352), everolimus (NSC733504), sapanisertib (NSC764658), vemurafenib (NSC761431), venetoclax (NSC766270), copanlisib (NSC809693), apelisib (NSC765974), palbociblib (NSC758247), vemurafenib (NSC761431), dabrafenib (NSC764134), ravoxertinib (NSC781343), BMS-387032 (NSC767048), sotorasib (NSC818433), talazoparib (NSC767125) and afursertib (NSC778305), were obtained from the National Cancer Institute (NCI) Developmental Therapeutics Program Chemical Repository. The FDA-approved anticancer drug set is available from the NCI Developmental Therapeutics Program. […] The stock solutions were prepared in dimethyl sulfoxide (DMSO, Sigma-Aldrich, St. Louis, MO, cat. D2650) at 800-fold the tested concentration and stored at -70 degrees C prior to their use. All drugs and investigational agents were tested over a range starting from a high concentration at or near the clinical Cmax and decreasing in half-log increments. If the clinical Cmax for an agent had not been determined, the highest concentration tested was 10 microM.
NCI60 Cell Culture. NCI60 cell lines were obtained from the NCI Developmental Therapeutics Program Tumor Repository. For each lot of cells, the Repository performed Applied Biosystems AmpFLSTR Identifiler testing with PCR amplification to confirm consistency with the published Identifier STR profile for each cell line. Cells were kept in continuous culture for no more than 20 passages. The optimal seeding densities for each of the cell lines at each time point assessed were determined prior to performing the concentration response studies. Briefly, the NCI60 human tumor lines were grown as monolayers in RPMI 1640 medium supplemented with 10% FBS and 2 mmol/L L-glutamine.
An additional 9 lines were from the NCI60 cell line panel including MDA-MB-231 breast carcinoma, MDA-MB-468 breast carcinoma, MCF7 breast carcinoma, Hs578T breast carcinoma, MALME-3M melanoma, SK-MEL-2 melanoma, SK-OV-3 ovarian carcinoma, DU-145 prostate carcinoma, PC-3 prostate carcinoma, all cell lines along with major genetic alterations are listed on Table 2. Pooled donor human umbilical vein endothelial cells (HUVEC, Lonza, cat. CC-2519) and human mesenchymal stem cells (hMSC, Lonza, cat. PT-2501) were purchased from Lonza (Walkersville, MD).
PDMR cell lines were grown in complete medium (DC medium): Dulbecco's modified Eagle's medium (DMEM)/F12 supplemented with 5% fetal bovine serum (FBS), 2 mM L-glutamine, 100 U/mL penicillin and 100 µg/ml streptomycin, 0.4 µg/ml hydrocortisone, 10 ng/ml epidermal growth factor (EGF) recombinant human protein, 24 µg/mL adenine, and 0.1 mg/mL primocin. During culture from frozen stock vials, PDMR cells were cultured in the same medium containing 10 µM Y-27632 (see Table 3). The PDCs were cultured in complete DMEM/F12 media without 10 microM Y-27632 dihydrochloride for at least two passages prior to the screen. The pooled donor HUVEC and hMSC were cultured in endothelial cell growth medium 2 (PromoCell, Heidelberg, Germany, cat. C-22011) and mesenchymal stem cell growth medium 2 (PromoCell, cat. C-28009), respectively. For all experiments, HUVEC and hMSC were used at passages </=5.
[…]

[1] = second compound 0.1 µM, first compound 0.0316 µM
[2] = second compound 0.1 µM, first compound 0.1 µM
[3] = second compound 0.316 µM, first compound 0.0316 µM
[4] = second compound 0.316 µM, first compound 0.1 µM
[5] = second compound 1 µM, first compound 0.0316 µM
[6] = second compound 1 µM, first compound 0.1 µM
[7] = second compound 3.16 µM, first compound 0.0316 µM
[8] = second compound 3.16 µM, first compound 0.1 µM
[9] = second compound 10 µM, first compound 0.0316 µM
[10] = second compound 10 µM, first compound 0.1 µM
[11] = second compound 0.1 µM, first compound 0.316 µM
[12] = second compound 0.1 µM, first compound 1 µM
[13] = second compound 0.1 µM, first compound 3.16 µM
[14] = second compound 0.1 µM, first compound 10 µM
[15] = second compound 0.316 µM, first compound 0.316 µM
[16] = second compound 0.316 µM, first compound 1 µM
[17] = second compound 0.316 µM, first compound 3.16 µM
[18] = second compound 0.316 µM, first compound 10 µM
[19] = second compound 1 µM, first compound 0.316 µM
[20] = second compound 1 µM, first compound 1 µM
[21] = second compound 1 µM, first compound 3.16 µM
[22] = second compound 1 µM, first compound 10 µM
[23] = second compound 3.16 µM, first compound 0.316 µM
[24] = second compound 3.16 µM, first compound 1 µM
[25] = second compound 3.16 µM, first compound 3.16 µM
[26] = second compound 3.16 µM, first compound 10 µM
[27] = second compound 10 µM, first compound 0.316 µM
[28] = second compound 10 µM, first compound 1 µM
[29] = second compound 10 µM, first compound 3.16 µM
[30] = second compound 10 µM, first compound 10 µM
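Also: spheroids exposed to agents for 7 days.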
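For viability, T/C in this document: 100% = DMSO vehicle control wells.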

SMILES | IC50 (second compound 0.1 µM) | IC50 (second compound 0.316 µM) | IC50 (second compound 1 µM) | IC50 (second compound 3.16 µM) | IC50 (second compound 10 µM) | viability, T/C [1] | viability, T/C [2] | viability, T/C [3] | viability, T/C [4] | viability, T/C [5] | viability, T/C [6] | viability, T/C [7] | viability, T/C [8] | viability, T/C [9] | viability, T/C [10] | viability, T/C [11] | viability, T/C [12] | viability, T/C [13] | viability, T/C [14] | viability, T/C [15] | further results
CC(C)n1nc(-c2ccc3oc(N)nc3c2)c2c(N)ncnc21 + CC(C)NCC(C(=O)N1CCN(c2ncnc3c2C(C)CC3O)CC1)c1ccc(Cl)cc1 | 9.11 nM | 1.82 nM | 1.13 nM | 0.83 nM | < 0.316 nM | 32.8% | 32.6% | 37.4% | 33.4% | 29.1% | 25% | 21.1% | 17.2% | 13.6% | 13% | – | – | – | – | – | viability, T/C (second compound 0.1 µM, first compound 0.000316 µM): 78.4%; viability, T/C (second compound 0.1 µM, first compound 0.001 µM): 72.8%; viability, T/C (second compound 0.1 µM, first compound 0.00316 µM): 53.6%; viability, T/C (second compound 0.1 µM, first compound 0.01 µM): 57.9%; viability, T/C (second compound 0.316 µM, first compound 0.000316 µM): 72.4%; viability, T/C (second compound 0.316 µM, first compound 0.001 µM): 58.5%; viability, T/C (second compound 0.316 µM, first compound 0.00316 µM): 43.5%; viability, T/C (second compound 0.316 µM, first compound 0.01 µM): 29.8%; viability, T/C (second compound 1 µM, first compound 0.000316 µM): 59.1%; viability, T/C (second compound 1 µM, first compound 0.001 µM): 51.9%; viability, T/C (second compound 1 µM, first compound 0.00316 µM): 40.7%; viability, T/C (second compound 1 µM, first compound 0.01 µM): 34%; viability, T/C (second compound 3.16 µM, first compound 0.000316 µM): 61.4%; viability, T/C (second compound 3.16 µM, first compound 0.001 µM): 47.2%; viability, T/C (second compound 3.16 µM, first compound 0.00316 µM): 37.2%; viability, T/C (second compound 3.16 µM, first compound 0.01 µM): 26%; viability, T/C (second compound 10 µM, first compound 0.000316 µM): 47.4%; viability, T/C (second compound 10 µM, first compound 0.001 µM): 42.5%; viability, T/C (second compound 10 µM, first compound 0.00316 µM): 34.6%; viability, T/C (second compound 10 µM, first compound 0.01 µM): 17%
CC1(C)CCC(CN2CCN(c3ccc(C(=O)NS(=O)(=O)c4ccc(NCC5CCOCC5)c([N+](=O)[O-])c4)c(Oc4cnc5[nH]ccc5c4)c3)CC2)=C(c2ccc(Cl)cc2)C1 + CC(C)NCC(C(=O)N1CCN(c2ncnc3c2C(C)CC3O)CC1)c1ccc(Cl)cc1 | 5100 nM | 3390 nM | < 31.6 nM | < 31.6 nM | < 31.6 nM | 78.3% | 66.5% | 60.8% | 54.9% | 45.1% | 47.5% | 37.2% | 35.3% | 34.3% | 27% | 62.5% | 87.9% | 103% | 8.08% | 44.4% | viability, T/C [16]: 44.4%; viability, T/C [17]: 60.4%; viability, T/C [18]: 4.07%; viability, T/C [19]: 40.8%; viability, T/C [20]: 36%; viability, T/C [21]: 38.2%; viability, T/C [22]: 2.04%; viability, T/C [23]: 35.6%; viability, T/C [24]: 29.3%; viability, T/C [25]: 37.1%; viability, T/C [26]: 2.03%; viability, T/C [27]: 24.2%; viability, T/C [28]: 28.8%; viability, T/C [29]: 30.7%; viability, T/C [30]: 0.98%
CCCS(=O)(=O)Nc1ccc(F)c(C(=O)c2c[nH]c3ncc(-c4ccc(Cl)cc4)cc23)c1F + CC(C)NCC(C(=O)N1CCN(c2ncnc3c2C(C)CC3O)CC1)c1ccc(Cl)cc1 | > 10000 nM | 9060 nM | 5370 nM | 3950 nM | < 31.6 nM | 93.3% | 89.6% | 67.9% | 78.2% | 68.4% | 61.2% | 59.6% | 56.9% | 46.1% | 50.3% | 94.7% | 95.9% | 86.9% | 73.9% | 74.1% | viability, T/C [16]: 59.6%; viability, T/C [17]: 72.5%; viability, T/C [18]: 48.2%; viability, T/C [19]: 59.8%; viability, T/C [20]: 60.2%; viability, T/C [21]: 60.8%; viability, T/C [22]: 37.7%; viability, T/C [23]: 51%; viability, T/C [24]: 51.7%; viability, T/C [25]: 54.4%; viability, T/C [26]: 32.7%; viability, T/C [27]: 54.9%; viability, T/C [28]: 42.3%; viability, T/C [29]: 40.8%; viability, T/C [30]: 14.6%

Reference: PubChem BioAssay AID2060336 (Molecular Pharmacology Branch, DTP, NCI, 2025)
